Measurements as given in ChEMBL document CHEMBL1201862, “PubChem BioAssay data set” (2004).
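Five concentrations, 48 hours, 96-well plates. At the GI50, growth is halved.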 Calls of active or inactive are those of the source. Rule as the data show it: active = GI50 up to about 1.1 µM and inactive = higher.

Assays:
Experiment in all cases: growth of human tumour cells (NCI), 48 h
[1] = system: TK-10
[2] = system: U-251
[3] = system: SK-MEL-28
[4] = system: NCI-H226
[5] = system: UACC-257
[6] = system: SK-MEL-5
[7] = system: M14
[8] = system: CCRF-CEM
[9] = system: NCI/ADR-RES
[10] = system: K562
[11] = system: HCT-15
[12] = system: A498
[13] = system: SNB-75
[14] = system: A549
[15] = system: NCI-H460
[16] = system: SK-OV-3
[17] = system: OVCAR-5
[18] = system: HT-29
[19] = system: HOP-62
[20] = system: MDA-MB-435

Compound | GI50 [1] | GI50 [2] | GI50 [3] | GI50 [4] | GI50 [5] | GI50 [6] | GI50 [7] | GI50 [8] | GI50 [9] | GI50 [10] | GI50 [11] [µM] | GI50 [12] | GI50 [13] | GI50 [14] | GI50 [15] | GI50 [16] | GI50 [17] | GI50 [18] | GI50 [19] | GI50 [20]
CC1(C)CC(=O)c2c(nc(SSc3nc4c(c(-c5ccc(Br)cc5)c3C#N)C(=O)CC(C)(C)C4)c(C#N)c2-c2ccc(Br)cc2)C1 | > 10 µM (inactive) | > 10 µM (inactive) | > 10 µM (inactive) | > 10 µM (inactive) | > 10 µM (inactive) | > 10 µM (inactive) | > 10 µM (inactive) | > 10 µM (inactive) | > 10 µM (inactive) | > 10 µM (inactive) | > 10 | > 10 µM (inactive) | > 10 µM (inactive) | > 10 µM (inactive) | > 10 µM (inactive) | > 10 µM (inactive) | > 10 µM (inactive) | > 10 µM (inactive) | > 10 µM (inactive) | –
Cn1c(=O)c(/N=N/c2c(=O)n(C)c(=O)n3c2[nH]c2ccccc23)c2[nH]c3ccccc3n2c1=O | 50.8 µM (inactive) | 22.4 µM (inactive) | > 100 µM (inactive) | 36.3 µM (inactive) | 54.2 µM (inactive) | > 100 µM (inactive) | > 100 µM (inactive) | 8.63 µM (inactive) | – | > 100 µM (inactive) | 48.5 | 90.4 µM (inactive) | 29.1 µM (inactive) | 92.7 µM (inactive) | 9.89 µM (inactive) | > 100 µM (inactive) | > 100 µM (inactive) | > 100 µM (inactive) | 57.1 µM (inactive) | –
O=C(CSc1nnc(-c2ccc(/N=C\c3ccc(Cl)cc3)cc2)o1)Nc1ccc(Cl)cc1Cl | > 100 µM (inactive) | 25.2 µM (inactive) | 28 µM (inactive) | 19.7 µM (inactive) | 25 µM (inactive) | 33.3 µM (inactive) | 16.4 µM (inactive) | 29.3 µM (inactive) | – | 38 µM (inactive) | 23.3 | > 100 µM (inactive) | 22.7 µM (inactive) | > 100 µM (inactive) | > 100 µM (inactive) | 27.5 µM (inactive) | 94.4 µM (inactive) | 25.8 µM (inactive) | 30.5 µM (inactive) | –
CC(=O)Nc1ccc2nc(-c3cccc(Cl)c3)cc(O)c2c1 | > 100 µM (inactive) | 3.65 µM (inactive) | 39.3 µM (inactive) | – | > 100 µM (inactive) | 4.93 µM (inactive) | 11.1 µM (inactive) | 3.44 µM (inactive) | > 100 µM (inactive) | – | – | – | 4.4 µM (inactive) | 54.7 µM (inactive) | > 10 µM (inactive) | 0.787 µM (active) | 68.4 µM (inactive) | 11.2 µM (inactive) | 65 µM (inactive) | 2.35 µM (inactive)
OCC1CCCCCCCCCCC12SCCCS2 (stereo not drawn) | > 100 µM (inactive) | > 100 µM (inactive) | > 100 µM (inactive) | > 100 µM (inactive) | – | > 100 µM (inactive) | > 100 µM (inactive) | > 100 µM (inactive) | > 100 µM (inactive) | 48.2 µM (inactive) | > 100 | – | > 100 µM (inactive) | > 100 µM (inactive) | > 100 µM (inactive) | > 100 µM (inactive) | > 100 µM (inactive) | > 100 µM (inactive) | > 100 µM (inactive) | > 100 µM (inactive)
COc1ccc(-n2sc3ncc([N+](=O)[O-])cc3c2=O)cc1 | > 100 µM (inactive) | > 100 µM (inactive) | > 100 µM (inactive) | > 100 µM (inactive) | > 100 µM (inactive) | > 100 µM (inactive) | > 100 µM (inactive) | 96.4 µM (inactive) | > 100 µM (inactive) | – | > 100 | – | > 100 µM (inactive) | > 100 µM (inactive) | > 100 µM (inactive) | > 100 µM (inactive) | > 100 µM (inactive) | > 100 µM (inactive) | > 100 µM (inactive) | > 100 µM (inactive)
CCC(CON(C)c1ccccc1)(SC)SC | > 100 µM (inactive) | > 100 µM (inactive) | > 100 µM (inactive) | > 100 µM (inactive) | > 100 µM (inactive) | > 100 µM (inactive) | > 100 µM (inactive) | > 100 µM (inactive) | > 100 µM (inactive) | – | > 100 | – | > 100 µM (inactive) | > 100 µM (inactive) | > 100 µM (inactive) | > 100 µM (inactive) | > 100 µM (inactive) | > 100 µM (inactive) | > 100 µM (inactive) | > 100 µM (inactive)
[O-][S+](Nc1ccccc1)c1ccc(Cl)c(Cl)c1 (stereo not drawn) | > 100 µM (inactive) | 15.9 µM (inactive) | > 100 µM (inactive) | 51.1 µM (inactive) | 62.2 µM (inactive) | 23.4 µM (inactive) | 73.5 µM (inactive) | > 100 µM (inactive) | 37.5 µM (inactive) | 39.9 µM (inactive) | 57.3 | – | – | 28.6 µM (inactive) | 31.3 µM (inactive) | – | – | > 100 µM (inactive) | 26.1 µM (inactive) | 24.2 µM (inactive)
COC(=O)C1=C(C[S+]([O-])c2ccc([N+](=O)[O-])cc2[N+](=O)[O-])ON(C)C1c1ccccc1 (stereo not drawn) | > 48.9 µM (inactive) | 31.3 µM (inactive) | 24.2 µM (inactive) | 65.2 µM (inactive) | 50.6 µM (inactive) | 83.9 µM (inactive) | 96.6 µM (inactive) | 9.06 µM (inactive) | – | 12.1 µM (inactive) | 37.8 | > 61.8 µM (inactive) | 16.3 µM (inactive) | 99.8 µM (inactive) | > 90.4 µM (inactive) | > 100 µM (inactive) | > 95.7 µM (inactive) | 20.2 µM (inactive) | 39 µM (inactive) | –
N#Cc1ccccc1/C=N/O | > 100 µM (inactive) | > 81.1 µM (inactive) | > 100 µM (inactive) | > 100 µM (inactive) | > 100 µM (inactive) | > 100 µM (inactive) | > 100 µM (inactive) | > 50.8 µM (inactive) | – | > 44.7 µM (inactive) | > 41 | > 100 µM (inactive) | > 69.5 µM (inactive) | > 100 µM (inactive) | > 59.2 µM (inactive) | > 100 µM (inactive) | > 100 µM (inactive) | > 75.3 µM (inactive) | > 100 µM (inactive) | –
COc1ccc(N2C(=O)C(=O)C3(CCCCC3)C2=O)c(OC)c1OC | > 100 µM (inactive) | > 100 µM (inactive) | > 100 µM (inactive) | > 100 µM (inactive) | > 100 µM (inactive) | > 100 µM (inactive) | > 100 µM (inactive) | > 100 µM (inactive) | > 100 µM (inactive) | – | > 100 | – | > 100 µM (inactive) | > 100 µM (inactive) | – | > 100 µM (inactive) | > 100 µM (inactive) | > 100 µM (inactive) | – | > 100 µM (inactive)
Nc1cc(N2CCCC2)nc(=O)n1Cc1ccccc1 | > 100 µM (inactive) | > 100 µM (inactive) | – | > 100 µM (inactive) | > 100 µM (inactive) | > 100 µM (inactive) | > 100 µM (inactive) | > 100 µM (inactive) | > 100 µM (inactive) | > 100 µM (inactive) | > 100 | – | > 100 µM (inactive) | > 100 µM (inactive) | > 100 µM (inactive) | – | > 100 µM (inactive) | > 100 µM (inactive) | > 100 µM (inactive) | > 100 µM (inactive)
O=C(OCc1ccccc1C1CSCSC1)c1cc(C(=O)OCc2ccccc2C2CSCSC2)c(C(=O)OCc2ccccc2C2CSCSC2)cc1C(=O)OCc1ccccc1C1CSCSC1 | > 100 µM (inactive) | > 100 µM (inactive) | > 100 µM (inactive) | > 100 µM (inactive) | > 100 µM (inactive) | > 100 µM (inactive) | > 100 µM (inactive) | > 100 µM (inactive) | – | > 100 µM (inactive) | > 100 | > 100 µM (inactive) | 29.4 µM (inactive) | > 100 µM (inactive) | > 100 µM (inactive) | > 100 µM (inactive) | > 100 µM (inactive) | > 100 µM (inactive) | > 100 µM (inactive) | –
O=C1CCCCC/C1=C\c1ccc(F)cc1 | 50.8 µM (inactive) | 98.6 µM (inactive) | > 100 µM (inactive) | > 100 µM (inactive) | 52.2 µM (inactive) | 44.8 µM (inactive) | > 100 µM (inactive) | 24.4 µM (inactive) | – | > 100 µM (inactive) | > 100 | > 100 µM (inactive) | > 100 µM (inactive) | > 100 µM (inactive) | 50.1 µM (inactive) | > 100 µM (inactive) | > 100 µM (inactive) | > 100 µM (inactive) | > 100 µM (inactive) | 74.1 µM (inactive)
CCCCCCCCC(=O)N(C)C1C2CN3CCC(O2)C13 (stereo not drawn) | > 100 µM (inactive) | > 100 µM (inactive) | > 100 µM (inactive) | > 100 µM (inactive) | > 100 µM (inactive) | > 100 µM (inactive) | > 100 µM (inactive) | > 100 µM (inactive) | – | > 100 µM (inactive) | > 100 | > 100 µM (inactive) | 75.7 µM (inactive) | > 100 µM (inactive) | > 100 µM (inactive) | > 100 µM (inactive) | > 100 µM (inactive) | > 100 µM (inactive) | > 100 µM (inactive) | –
N#Cc1ccc(-c2nc3cc(Cl)ccc3[nH]2)cc1 | – | 61.9 µM (inactive) | – | 99.5 µM (inactive) | – | 37.8 µM (inactive) | 79.1 µM (inactive) | 41.2 µM (inactive) | 30.4 µM (inactive) | 50.2 µM (inactive) | 39.9 | – | > 100 µM (inactive) | 38.3 µM (inactive) | – | > 100 µM (inactive) | – | 48.2 µM (inactive) | > 100 µM (inactive) | –
